Source: patent publication US12616753B2, “HSP70 inhibitors and methods of using same” (THE WISTAR INSTITUTE, priority 2020, dated 2026)

How the values were obtained:
full length human HSP70 = target: T1, full length human HSP70 (Homo sapiens, UniProt P0DMV8); test: HSP70 mediated ATPase assay (Transcreener ADP-FI); type: biochemical
T1 construct: Five μL of 30 nM full length human HSP70 in assay buffer
Protocol: (§1) FIGS. 1A-1D show ATPase inhibition and direct binding of a novel HSP70 inhibitor. FIG. 1A: Compounds AP-3-97 and AP-4-139B are direct inhibitors of HSP70. HSP70 mediated ATPase activity was assessed using the TRANSCREENER® ADP-FI assay. Five microliters of 30 nM purified human HSP70 in assay buffer was added to test compounds for 30 minutes, followed by addition of excess ATP. After 15 minutes, reactions were stopped and fluorescence was assessed on a plate reader. Data are normalized to percent inhibition, where 100% is the value in the absence of HSP70, and 0% is the value in the presence of HSP70. Compounds shown include PET-16 (positive control) and the novel HSP70 inhibitors AP-3-97 and AP-4-139B. VY-3-277 was used as a negative control. FIG. 1B: Compound AP-4-139B binds HSP70. Whole cell extracts (WCE) from H1299 cells were incubated with 10 μM Biotin or with a Biotin-labeled variant of AP-4-139B (Biotin-AP-4-139B) for 5 hours. Biotin-AP-4-139B containing complexes were captured using NeutrAvidin resins and separated by SDS-PAGE. The Coomassie-stained protein band of approximately 70 kDa was excised and subjected to tryptic digestion and liquid chromatography-tandem mass spectrometry, and identified to be HSP70. FIG. 1C: H1299 cells were pre-treated with 10 μM of VY-3-277, PET-16, or AP-4-139B for 1 hour prior to the addition of 10 μM Biotin-AP-4-139B for 5 hours. Biotin-AP-4-139B containing complexes were captured by NeutrAvidin resins and immunoblotted using the indicated antibodies following SDS-PAGE. Whole cell extracts (WCE) were examined for the expression of HSP70 (input) and GRP75 (input) by Western blot analysis. FIG. 1D: Compound AP-4-139B directly binds purified human HSP70. […] Data were analyzed using the evaluation software from Biacore and the resulting sensograms were exported and re-plotted in GraphPad Prism.
HSP70 mediated ATPase activity was measured using the Transcreener® ADP-FI assay (BellBrook Labs). […] After 30 minutes, fluorescence at 560/620 nm was measured using the Envision plate reader. […]

HSP70 = target: T2, HSP70 (Homo sapiens, UniProt P0DMV8); test: HSP70 competition assay in H1299 cells; type: binding; details: 10 μM, one-hour pre-incubation
T2 construct: BAP-4-139B successfully precipitated a single protein from H1299 cells; endogenous in cells; host or cells: H1299 human lung carcinoma cells
T2 sequence (P0DMV8 whole entry): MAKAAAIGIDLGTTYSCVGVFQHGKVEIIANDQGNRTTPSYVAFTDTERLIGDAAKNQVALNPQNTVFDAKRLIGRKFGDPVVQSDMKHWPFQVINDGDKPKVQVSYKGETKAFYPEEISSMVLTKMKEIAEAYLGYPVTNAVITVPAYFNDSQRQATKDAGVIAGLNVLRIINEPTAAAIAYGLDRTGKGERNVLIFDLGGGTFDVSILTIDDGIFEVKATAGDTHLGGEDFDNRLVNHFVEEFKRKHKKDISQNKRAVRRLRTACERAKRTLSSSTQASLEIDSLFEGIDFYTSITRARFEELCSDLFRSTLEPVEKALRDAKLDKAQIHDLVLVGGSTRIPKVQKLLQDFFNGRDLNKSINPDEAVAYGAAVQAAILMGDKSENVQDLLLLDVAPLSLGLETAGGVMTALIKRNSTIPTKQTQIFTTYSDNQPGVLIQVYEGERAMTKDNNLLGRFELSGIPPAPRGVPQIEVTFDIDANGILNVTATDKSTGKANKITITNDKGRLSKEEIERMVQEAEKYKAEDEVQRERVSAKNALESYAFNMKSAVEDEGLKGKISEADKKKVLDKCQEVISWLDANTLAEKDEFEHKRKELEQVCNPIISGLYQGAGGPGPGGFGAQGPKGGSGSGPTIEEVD
Protocol: as §1, with “HSP70.” for “HSP70. FIG. 1C: H1299 cells were pre-treated with 10 μM of VY-3-277, PET-16, or AP-4-139B for 1 hour prior to the addition of 10 μM Biotin-AP-4-139B for 5 hours. Biotin-AP-4-139B containing complexes were captured by NeutrAvidin resins and immunoblotted using the indicated antibodies following SDS-PAGE. Whole cell extracts (WCE) were examined for the expression of HSP70 (input) and GRP75 (input) by Western blot analysis. FIG. 1D: Compound AP-4-139B directly binds purified human HSP70.”, “Prism. […]” for “Prism.”

T1 sequence (P0DMV8 whole entry): as above

SMILES	inhibition of HSP70 ATPase activity (in words) (full length human HSP70)	prevention of BAP-4-139B pull down of HSP70 (HSP70)	IC50 (full length human HSP70)
c1ccc(-c2cn3nc(CCCCCC[P+](c4ccccc4)(c4ccccc4)c4ccccc4)sc3n2)cc1 [AP-4-139B, Triphenyl(6-(6-phenylimidazo[2,1-b][1,3,4]thiadiazol-2-yl)hexyl)phosphonium bromide]	markedly superior potency	prevented the ability of BAP-4-139B to pull down HSP70	
C(#C[P+](c1ccccc1)(c1ccccc1)c1ccccc1)c1ccccc1 [PET-16, Triphenyl(phenylethynyl)phosphonium bromide, reference compound]		prevented the ability of BAP-4-139B to pull down HSP70	~3 µM
